Results as given in PubChem BioAssay AID2060510 (Molecular Pharmacology Branch, DTP, NCI, 2025).

Tested on: 439559-082-T-J2-PDC spheroids viability
Assay: Anticancer human tumor 439559-082-T-J2-PDC patient-derived colon adenocarcinoma cell line growth inhibition [GQUAD]
Details: for IC50: curve of first compound; for viability, T/C: stronger effect = lower value
Procedure, shortened: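 Multi-cell-type spheroids of tumor cells with HUVEC and mesenchymal stem cells, treated with drug combinations. Concentrations descend in half-log steps from near clinical Cmax, or from 10 microM where Cmax is unknown; viability read-out.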

[1] = second compound 0.0316 µM, first compound 0.0316 µM
[2] = second compound 0.0316 µM, first compound 0.1 µM
[3] = second compound 0.0316 µM, first compound 0.316 µM
[4] = second compound 0.0316 µM, first compound 1 µM
[5] = second compound 0.0316 µM, first compound 3.16 µM
[6] = second compound 0.0316 µM, first compound 10 µM
[7] = second compound 0.1 µM, first compound 0.0316 µM
[8] = second compound 0.1 µM, first compound 0.1 µM
[9] = second compound 0.1 µM, first compound 0.316 µM
[10] = second compound 0.1 µM, first compound 1 µM
[11] = second compound 0.1 µM, first compound 3.16 µM
[12] = second compound 0.1 µM, first compound 10 µM
[13] = second compound 0.316 µM, first compound 0.0316 µM
[14] = second compound 0.316 µM, first compound 0.1 µM
[15] = second compound 0.316 µM, first compound 0.316 µM
[16] = second compound 0.316 µM, first compound 1 µM
[17] = second compound 0.316 µM, first compound 3.16 µM
[18] = second compound 0.316 µM, first compound 10 µM
[19] = second compound 1 µM, first compound 0.0316 µM
[20] = second compound 1 µM, first compound 0.1 µM
[21] = second compound 1 µM, first compound 0.316 µM
[22] = second compound 1 µM, first compound 1 µM
[23] = second compound 1 µM, first compound 3.16 µM
[24] = second compound 1 µM, first compound 10 µM
[25] = second compound 3.16 µM, first compound 0.0316 µM
[26] = second compound 3.16 µM, first compound 0.1 µM
[27] = second compound 3.16 µM, first compound 0.316 µM
[28] = second compound 3.16 µM, first compound 1 µM
[29] = second compound 3.16 µM, first compound 3.16 µM
[30] = second compound 3.16 µM, first compound 10 µM
[31] = second compound 10 µM, first compound 0.0316 µM
[32] = second compound 10 µM, first compound 0.1 µM
[33] = second compound 10 µM, first compound 0.316 µM
[34] = second compound 10 µM, first compound 1 µM
[35] = second compound 10 µM, first compound 3.16 µM
[36] = second compound 10 µM, first compound 10 µM
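Further: spheroids exposed to the agents for 7 days before readout.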
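Wherever viability, T/C is given: percent of luminescence signal in DMSO vehicle wells taken as 100% viability.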

CC(=O)O[C@H]1C(=O)[C@@]2(C)[C@H]([C@H](OC(=O)c3ccccc3)[C@]3(O)C[C@H](OC(=O)[C@H](O)[C@@H](NC(=O)c4ccccc4)c4ccccc4)C(C)=C1C3(C)C)[C@]1(OC(C)=O)CO[C@@H]1C[C@@H]2O + Cc1[nH]c2ccc(F)cc2c1-c1nc2c3cccnc3c3ncccc3c2[nH]1
IC50 (second compound 0.0316 µM): 343 nM | IC50 (second compound 0.1 µM): 406 nM | IC50 (second compound 0.316 µM): 436 nM | IC50 (second compound 1 µM): 402 nM | IC50 (second compound 3.16 µM): 385 nM | IC50 (second compound 10 µM): 298 nM | viability, T/C [1]: 103% | viability, T/C [2]: 81.4% | viability, T/C [3]: 57.7% | viability, T/C [4]: 4.13% | viability, T/C [5]: 0.17% | viability, T/C [6]: 0.27% | viability, T/C [7]: 99% | viability, T/C [8]: 96.2% | viability, T/C [9]: 63.1% | viability, T/C [10]: 2.41% | viability, T/C [11]: 0.19% | viability, T/C [12]: 0.28% | viability, T/C [13]: 102% | viability, T/C [14]: 87.5% | viability, T/C [15]: 67.7% | viability, T/C [16]: 5.02% | viability, T/C [17]: 0.14% | viability, T/C [18]: 0.29% | viability, T/C [19]: 90.2% | viability, T/C [20]: 82.3% | viability, T/C [21]: 61.9% | viability, T/C [22]: 6.01% | viability, T/C [23]: 0.1% | viability, T/C [24]: 0.41% | viability, T/C [25]: 61.7% | viability, T/C [26]: 76.5% | viability, T/C [27]: 58.6% | viability, T/C [28]: 6.91% | viability, T/C [29]: 0.18% | viability, T/C [30]: 0.37% | viability, T/C [31]: 88.9% | viability, T/C [32]: 63.2% | viability, T/C [33]: 55.9% | viability, T/C [34]: 9.43% | viability, T/C [35]: 0.43% | viability, T/C [36]: 0.5%

CCCS(=O)(=O)Nc1ccc(F)c(C(=O)c2c[nH]c3ncc(-c4ccc(Cl)cc4)cc23)c1F + Cc1[nH]c2ccc(F)cc2c1-c1nc2c3cccnc3c3ncccc3c2[nH]1
IC50 (second compound 0.0316 µM): 2750 nM | IC50 (second compound 0.1 µM): 2640 nM | IC50 (second compound 0.316 µM): 3100 nM | IC50 (second compound 1 µM): 3130 nM | IC50 (second compound 3.16 µM): 2040 nM | IC50 (second compound 10 µM): 2610 nM | viability, T/C [1]: 108% | viability, T/C [2]: 96.2% | viability, T/C [3]: 103% | viability, T/C [4]: 78.5% | viability, T/C [5]: 46.5% | viability, T/C [6]: 21.1% | viability, T/C [7]: 104% | viability, T/C [8]: 94.5% | viability, T/C [9]: 95% | viability, T/C [10]: 83.8% | viability, T/C [11]: 43.5% | viability, T/C [12]: 22.7% | viability, T/C [13]: 105% | viability, T/C [14]: 100% | viability, T/C [15]: 89.8% | viability, T/C [16]: 80.2% | viability, T/C [17]: 47.6% | viability, T/C [18]: 23% | viability, T/C [19]: 108% | viability, T/C [20]: 97.3% | viability, T/C [21]: 90.4% | viability, T/C [22]: 75.1% | viability, T/C [23]: 48.6% | viability, T/C [24]: 20.8% | viability, T/C [25]: 78.7% | viability, T/C [26]: 86% | viability, T/C [27]: 79.5% | viability, T/C [28]: 65.2% | viability, T/C [29]: 40.5% | viability, T/C [30]: 16.2% | viability, T/C [31]: 81.2% | viability, T/C [32]: 67.6% | viability, T/C [33]: 71.5% | viability, T/C [34]: 67.6% | viability, T/C [35]: 46.1% | viability, T/C [36]: 13.5%

Cc1[nH]c2ccccc2c1CCNCc1ccc(/C=C/C(=O)NO)cc1 + Cc1[nH]c2ccc(F)cc2c1-c1nc2c3cccnc3c3ncccc3c2[nH]1
IC50 (second compound 0.0316 µM): > 316 nM | IC50 (second compound 0.1 µM): > 316 nM | IC50 (second compound 0.316 µM): > 316 nM | IC50 (second compound 1 µM): > 316 nM | IC50 (second compound 3.16 µM): > 316 nM | IC50 (second compound 10 µM): > 316 nM | viability, T/C (second compound 0.0316 µM, first compound 0.000999 µM): 97.3% | viability, T/C (second compound 0.0316 µM, first compound 0.00316 µM): 107% | viability, T/C (second compound 0.0316 µM, first compound 0.00999 µM): 92.6% | viability, T/C [1]: 85.9% | viability, T/C (second compound 0.0316 µM, first compound 0.0999 µM): 102% | viability, T/C [3]: 97.9% | viability, T/C (second compound 0.1 µM, first compound 0.000999 µM): 120% | viability, T/C (second compound 0.1 µM, first compound 0.00316 µM): 86.1% | viability, T/C (second compound 0.1 µM, first compound 0.00999 µM): 107% | viability, T/C [7]: 92.9% | viability, T/C (second compound 0.1 µM, first compound 0.0999 µM): 101% | viability, T/C [9]: 105% | viability, T/C (second compound 0.316 µM, first compound 0.000999 µM): 115% | viability, T/C (second compound 0.316 µM, first compound 0.00316 µM): 91.1% | viability, T/C (second compound 0.316 µM, first compound 0.00999 µM): 95.6% | viability, T/C [13]: 100% | viability, T/C (second compound 0.316 µM, first compound 0.0999 µM): 91.6% | viability, T/C [15]: 100% | viability, T/C (second compound 1 µM, first compound 0.000999 µM): 92.5% | viability, T/C (second compound 1 µM, first compound 0.00316 µM): 88.8% | viability, T/C (second compound 1 µM, first compound 0.00999 µM): 87.3% | viability, T/C [19]: 93.2% | viability, T/C (second compound 1 µM, first compound 0.0999 µM): 91.9% | viability, T/C [21]: 91.3% | viability, T/C (second compound 3.16 µM, first compound 0.000999 µM): 84% | viability, T/C (second compound 3.16 µM, first compound 0.00316 µM): 70.6% | viability, T/C (second compound 3.16 µM, first compound 0.00999 µM): 87.9% | viability, T/C [25]: 78.5% | viability, T/C (second compound 3.16 µM, first compound 0.0999 µM): 90.2% | viability, T/C [27]: 85.7% | viability, T/C (second compound 10 µM, first compound 0.000999 µM): 74% | viability, T/C (second compound 10 µM, first compound 0.00316 µM): 80.9% | viability, T/C (second compound 10 µM, first compound 0.00999 µM): 82.6% | viability, T/C [31]: 83.2% | viability, T/C (second compound 10 µM, first compound 0.0999 µM): 91.5% | viability, T/C [33]: 83.3%

O=C(NO)c1cnc(N2CCN(S(=O)(=O)c3ccc4ccccc4c3)CC2)nc1 + Cc1[nH]c2ccc(F)cc2c1-c1nc2c3cccnc3c3ncccc3c2[nH]1
IC50 (second compound 0.0316 µM): 2100 nM | IC50 (second compound 0.1 µM): 1870 nM | IC50 (second compound 0.316 µM): 3790 nM | IC50 (second compound 1 µM): 2040 nM | IC50 (second compound 3.16 µM): 1350 nM | IC50 (second compound 10 µM): 1090 nM | viability, T/C [1]: 90.8% | viability, T/C [2]: 86% | viability, T/C [3]: 75.8% | viability, T/C [4]: 60.1% | viability, T/C [5]: 44.6% | viability, T/C [6]: 31.5% | viability, T/C [7]: 84.4% | viability, T/C [8]: 79.8% | viability, T/C [9]: 75.9% | viability, T/C [10]: 64.4% | viability, T/C [11]: 37.9% | viability, T/C [12]: 31.4% | viability, T/C [13]: 85.4% | viability, T/C [14]: 76.4% | viability, T/C [15]: 76% | viability, T/C [16]: 65% | viability, T/C [17]: 55.9% | viability, T/C [18]: 30.8% | viability, T/C [19]: 86.2% | viability, T/C [20]: 85.2% | viability, T/C [21]: 77.1% | viability, T/C [22]: 64.8% | viability, T/C [23]: 41% | viability, T/C [24]: 25.7% | viability, T/C [25]: 70.3% | viability, T/C [26]: 73.7% | viability, T/C [27]: 62.1% | viability, T/C [28]: 58.1% | viability, T/C [29]: 31.6% | viability, T/C [30]: 25.8% | viability, T/C [31]: 68.2% | viability, T/C [32]: 67.4% | viability, T/C [33]: 58.4% | viability, T/C [34]: 53.1% | viability, T/C [35]: 24.2% | viability, T/C [36]: 22.4%
